# Laboratory results: patent US6420570B1, “Psoralen compounds” (priority 1993, dated 2002)
# Structures can show the parent of a compound that is named as a salt.
# Experiments:
# [1] = system: R17; assay: R17 bacteriophage inactivation screen, varying compound concentration; format: cell-based
# Procedure: The assay used to predict pathogen inactivation efficiency and to determine nucleic acid binding of the photoreactive binding compounds of the present invention was that in which a bacteriophage, R17, in solution with the desired substrate was irradiated. The ability of the phage to subsequently infect bacteria and inhibit their growth was measured. The bacteriophage was selected for its relatively accessible nucleic acid such that the culture growth inhibition would accurately reflect nucleic acid damage by the test compounds. The bacteriophage assay for nucleic acid binding to test compounds offers a safe and inexpensive procedure to identify compounds likely to display efficient pathogen inactivation. […] An aliquot (0.5 mL) was transferred to a 1.5 mL, snap-top polyethylene tube. An aliquot (0.004-0.040 mL) of the test compound stock solution prepared in water, ethanol or dimethylsulfoxide at 0.80-8.0 mM was added to the tube. Compounds were tested at concentrations between 4 μM and 320 μM. (AMT is commercially available from HRI, Inc., Concord, Calif.; 8-MOP is commercially available from Sigma, St. Louis, Mo.). The tubes were placed in a light device as described in EXAMPLE 1 and irradiated for between 1 and 10 minutes. […] To make the dilutions, a 0.100 mL aliquot of the irradiated solution of phage and test compound was added to the first dilution tube of 0.4 mL of media then 0.020 mL of this solution was added to the second tube of 0.5 mL medium (1:25). The second solution was then diluted serially (1:25) into the remaining tubes. […] After the top agar hardened, the plates were incubated at 37° C. overnight. The plaque forming units were then counted the following morning and the titer of the phage remaining after phototreatment was calculated based on the dilution factors. The following controls were run: the “phage only” in which phage was not treated with test compound and not irradiated (listed as “starting titer” in the tables below); the “UV only” in which the phage was irradiated in the absence of test compound; and the “dark” control in which the phage/test compound solution was not irradiated before it was diluted and plated.
# [2] = system: cell-free virus (HIV); format: cell-based; details: Table 8, 1 minute irradiation, HIV starting titer approximately 5 logs
# Procedure: Pathogen inactivation efficiency of several compounds of the present invention was evaluated by examining the ability of the compounds to inactivate cell-free virus (HIV). Inactivation of cell-free HIV was performed as follows.
# As in the R17 assay, small aliquots of the compounds listed in TABLES 8 and 9, below, at the concentrations listed in the table, were added to stock HIV-1 to a total of 0.5 mL. The stock HIV (10^5-10^7 plaque forming units/mL) was in DMEM/15% FBS. […] Controls included HIV-1 stock only, HIV-1 plus UVA only, and HIV-1 plus the highest concentration of each psoralen tested, with no UVA. Post irradiation, all samples were stores frozen at −70° C. until assayed for infectivity by a microtiter plaque assay. Aliquots for measurement of residual HIV infectivity in the samples treated with a compound of the present invention were withdrawn and cultured.
# Residual HIV infectivity was assayed using an MT-2 infectivity assay. […] The assay medium was 85% DMEM (with a high glucose concentration) containing 100 μg of streptomycin, 100 U of penicillin, 50 μg of gentamicin, and 1 μg of amphotericin B per mL, 15% FBS and 2 μg of Polybrene (Sigma Chemical Co., St. Louis, Mo.) per mL. Test and control samples from the inactivation procedure were diluted in 50% assay medium and 50% normal human pooled plasma. The samples were serially diluted directly in 96-well plates (Corning Glass Works, corning, N.Y.). The plates were mixed on an oscillatory shaker for 30 seconds and incubated at 37° C. in a 5% CO2 atmosphere for 1 to 18 hours. […] After an additional 1 hour of incubation at 37° C. in 5% CO2, 0.075 mL of assay medium containing 1.6% SeaPlaque agarose (FMC Bioproducts, Rockland, me.) and prewarmed to 38.5° C. was added to each well. The plates were kept at 37° C. for a few minutes until several plates had accumulated and then centrifuged in plate carriers at 600×g for 20 minutes in a centrifuge precooled to 10° C. In the centrifuge, cell monolayers formed prior to gelling of the agarose layer. The plates were incubated for 5 days at 37° C. in 5% CO2 and stained by the addition of 0.05 mL of 50 μg/mL propidium iodide (Sigma Chemical Co.) in phosphate-buffered saline (pH 7.4) to each well. After 24 to 48 hours, the red fluorescence-stained microplaques were visualized by placing the plates on an 8,000 μW/cm^2 304 nm UV light box (Fotodyne, Inc., New Berlin, Wis.). The plaques were counted at a magnification of ×20 to ×25 through a stereomicroscope. “n” represents the number of runs for which the data point is an average.
# [3] = system: Duck Hepatitis B Virus (DHBV); assay: Inactivation of Duck Hepatitis B Virus in platelet concentrate, PCR amplification read-out; details: 5 J/CM^2 UVA
# Procedure: This example describes the protocol for inactivation of another virus, Duck Hepatitis B Virus (DHBV), using compounds of the present invention. DHBV in duck yolk was added to platelet concentrate (PC) to a final concentration of 2×10^7 particles per mL and mixed by gentle rocking for ≧15 min. […] Samples, including controls without added psoralen, were irradiated with 5 J/CM^2 UVA, with mixing at 1 J/cm^2 increments. After irradiation, leukocytes and platelets were separated from virus by centrifugation. […] Samples were extracted with phenolchloroform and chloroform, followed by ethanol precipitation. […] PCR amplicons were generated using primers pairs DCD03/DCD05 (127 bp), DCD03/DCD06 (327 bp) and DCD03/DCD07 (1072 bp). PCR was performed in a standard PCR buffer containing 0.2 mM each deoxyribonucleoside 5′-triphosphates (dATP, dGTP, dCTP, and dTTP), 0.5 […], and 0.5 units Taq polymerase per […]. 30 cycles of amplification were performed with the following thermal profile: 95° C. 30 sec, 60° C. 30 sec, 72° C. 1 min. The amplification was followed by a 7 min incubation at 72° C. to yield full length products. [[…]-^32P] dCTP was added at an amount of […] in order to detect and quantify the resulting products. Products were separated by electrophoresis on denaturing polyacrylamide slab gels and counted. The absence of signal in a given reaction was taken to indicate effective inactivation of DHBV.
# [4] = system: TA1537; assay: Ames assay, dark mutagenicity, strain TA1537
# Procedure: (§1) In this example the compounds of the present invention are tested for their dark mutagenicity using an Ames assay. The procedures used for the Salmonella mutagenicity test as described in detail by Maron and Ames were followed exactly. Maron, D. M. and B. N. Ames, Mutation Research 113:173 (1983). A brief description for each procedure is given here. The tester strains TA97a, TA98, TA100, TA102, TA1537 and TA1538 were obtained from Dr. Ames. TA97a, TA98, TA1537 and TA1538 are frameshift tester strains. TA100 and TA102 are base-substitution tester strains. Upon receipt each strain was cultured under a variety of conditions to confirm the genotypes specific to the strains.
# (§2) The first tests done with the strains were to determine the range of spontaneous reversion for each of the strains. With each mutagenicity experiment the spontaneous reversion of the tester strains to histidine independence was measured and expressed as the number of spontaneous revertants per plate. This served as the background controls.
# (§3) For all experiments, the pre-incubation procedure was used. In this procedure one vial of each tester strain was thawed and 20 μL of this culture was added to 6 mL of Oxoid Nutrient Broth #2. This solution was allowed to shake for 10 hours at 37° C. In the pre-incubation procedure, 0.1 mL of this overnight culture was added to each of the required number of sterile test tubes. To half of the tubes 0.5 mL of a 10% S-9 solution containing Aroclor 1254 induced rat liver extract (Molecular Toxicology Inc., Annapolis, MD), and MgCl2, KCl, glucose-6-phosphate, NADP, and sodium phosphate buffer (Sigma, St. Louis. Mo.) were added. To the other half of the tubes 0.5 mL of 0.2M sodium phospate buffer, pH 7.4, was used in place of the S-9 mixture (the -S9 samples) Finally 0.1 mL of the test solution containing either 0.0.1, 0.5, 1, 5, 10, 50, 100, 250, or 500 μg/mL of the test compound was added. The 0.7 mL mixture pre-incubated while shaking for 20 minutes at 37° C. After shaking, 2 mL of molten top agar supplemented with histidine and biotin were added to the 0.7 mL mixture and immediately poured onto a minimal glucose agar plate (volume of base agar was 20 ml.). The top agar was allowed 30 minutes to solidify and then the plates were inverted and incubated for 44 hours at 37° C. After incubation the number of revertant colonies on each plate were counted. […] (“n” represents the number of replicates performed for each data point.)
# (§4) Maron and Ames (1983) describe the conflicting views with regard to the statistical treatment of data generated from the test.
# [5] = system: TA1538; assay: Ames assay, dark mutagenicity, strain TA1538
# Procedure: as §1, §2, §3, §4
# [6] = system: Salmonella tester strains; assay: Ames assay, dark mutagenicity, overall over tester strains
# Procedure: as §1, §2, §3, §4
# [7] = system: DNA; details: photoactivated binding; NCI Monograph 66:21 (1984); cited from earlier work
# [8] = system: TA102; assay: Ames assay, dark mutagenicity, strain TA102
# Procedure: as §1, §2
# For all experiments, the pre-incubation procedure was used. In this procedure one vial of each tester strain was thawed and 20 μL of this culture was added to 6 mL of Oxoid Nutrient Broth #2. This solution was allowed to shake for 10 hours at 37° C. […] After incubation the number of revertant colonies on each plate were counted. […]
# [9] = Table 6, 16 uM, 1 minute irradiation = 1.2 J/cm^2, starting titer approx. 7.1 logs
# [10] = Table 6, 32 uM, 1 minute irradiation = 1.2 J/cm^2, starting titer approx. 7.1 logs
smiles,measurement,setting,value
"Cc1oc2c(C)c3oc(=O)cc(C)c3cc2c1CNCCN (as salt: hydrochloride) [Compound 1, 4′-(4-amino-2-aza)butyl-4,5′,8-trimethylpsoralen dihydrochloride]",melting point,,320 to 322 °C (dec.)
"Cc1oc2c(C)c3oc(=O)cc(C)c3cc2c1CNCCCN (as salt: hydrochloride) [Compound 5, 4′-(5-amino-2-aza)pentyl-4,5′,8-trimethylpsoralen dihydrochloride]",melting point,,288 °C (dec.)
"Cc1oc2c(C)c3oc(=O)cc(C)c3cc2c1CN [AMT, 4′-Aminomethyl-4,5′,8-trimethylpsoralen, reference compound]",R17 Log Kill 8 uM,"[1]; Table 5, 8 uM, 1 minute irradiation, starting titer approx. 7.2 logs",2.7 log
same,R17 Log Kill 16 uM,"[1]; Table 5, 16 uM, 1 minute irradiation, starting titer approx. 7.2 logs",4.6 log
same,R17 Log Kill 32 uM,"[1]; Table 5, 32 uM, 1 minute irradiation, starting titer approx. 7.2 logs",>6.2 log
same,R17 log kill 16 uM,[1]; [9],4.5 log
same,R17 log kill 32 uM,[1]; [10],4.8 log
same,R17 log kill 16 uM,"[1]; Table 7, 16 uM, 1 minute irradiation, starting titer approx. 7.1 logs",>6 log
same,R17 log kill 32 uM,"[1]; Table 7, 32 uM, 1 minute irradiation, starting titer approx. 7.1 logs",>6 log
same,HIV Log Kill 16 μM,[2]; 16 μM,1.4 log
same,PCR amplification of the 1072 bp amplicon,[3]; platelet concentrate,a signal could be detected
same,PCR amplification of the 1072 bp amplicon,"[3]; 70 and 100 mM levels, platelet concentrate",inhibited PCR amplification
same,dose at which frameshift mutagenicity was shown,[4]; TA1537,5 μg/plate
same,revertant colonies per plate,"[4]; TA1537 −S9, 100 μg/plate",2058
same,dose at which frameshift mutagenicity was shown,[5]; TA1538,1 μg/plate
same,revertant colonies per plate,"[5]; TA1538 +S9, 0.5 μg/plate",13
same,revertant colonies per plate,"[5]; TA1538 +S9, 1 μg/plate",37
same,revertant colonies per plate,"[5]; TA1538 +S9, 5 μg/plate",177
same,revertant colonies per plate,"[5]; TA1538 +S9, 10 μg/plate",255
same,revertant colonies per plate,"[5]; TA1538 −S9, 0.5 μg/plate",4
same,revertant colonies per plate,"[5]; TA1538 −S9, 1 μg/plate",4
same,revertant colonies per plate,"[5]; TA1538 −S9, 5 μg/plate",13
same,base-substitution mutagenicity,[6]; base-substitution tester strains TA100 and TA102,no significant base-substitution mutations
same,concentration at which mutagenicity was displayed,[6]; comparison with Compound 6,5 μg/plate
same,DNA base pairs per adduct (up to 1 AMT adduct per),[7],3.5 DNA base pairs
"Cc1oc2c(C)c3oc(=O)cc(C)c3cc2c1COCCCN [Compound 4, 4′-(5-amino-2-oxa)pentyl-4,5′,8-trimethylpsoralen]",R17 log kill 16 uM,[1]; [9],2.3 log
same,R17 log kill 32 uM,[1]; [10],4.3 log
same,R17 log kill 64 uM,"[1]; Table 6, 64 uM, 1 minute irradiation = 1.2 J/cm^2, starting titer approx. 7.1 logs",>6.1 log
same,HIV Log Kill 32 μM,[2]; 32 μM,2.2 log
same,HIV Log Kill 64 μM,[2]; 64 μM,>3.6 log
same,mutagenicity as defined by the Ames test,[6]; two-fold or greater increase in revertants above background and dose dependent response,no mutagenicity
"COc1c2occc2cc2ccc(=O)oc12 [Compound 8-MOP, 8-Methoxypsoralen]",dose at which the only mutagenic response (weak base-substitution mutagen) was detected,[8]; TA102,500 μg/plate
Cc1oc2c(C)c3oc(=O)cc(C)c3cc2c1COCCN [Compound S-59],PCR of the smaller amplicons compared with AMT,"[3]; 127 bp and 327 bp amplicons, same concentrations",inhibited PCR of the smaller amplicons better than did AMT
same,PCR of the 1072 bp amplicon,"[3]; all concentrations (35, 70, and 100 mM), platelet concentrate",complete inhibition of PCR
OO [hydrogen peroxide],"revertant colonies per plate, positive control","[8]; Salmonella typhimurium, 44 h, 100 μg/plt, pH 7.4",660
